{"source": "paper PMC11995724", "about": "“Antibiotic target discovery by integrated phenotypic and activity-based profiling of electrophilic fragments” (Cell chemical biology, 2025)", "note": "Where a name gives a salt, the structure may show the parent alone."}
{"assay": "in vitro", "settings": "human, hek293t cells", "units": {"viability at 48 h, 25 µM": "%"}}
{"smiles": "COC(=O)Cc1ccc(C(=O)CCl)s1", "note": "[10-L12, methyl 2-[5-(2-chloroacetyl)thiophen-2-yl]acetate]", "viability at 48 h, 25 µM": 76.1}
{"smiles": "C=CC(=O)N1CCC(C(=O)N(C)C(C)CC(N)=O)CC1", "note": "(centres unmarked) [2-K20, 3-{N-methyl-1-[1-(prop-2-enoyl)piperidin-4-yl]formamido}butanamide]", "viability at 48 h, 25 µM": 88.3}
{"smiles": "CC(=O)Nc1ccc(NC(=O)C(C#N)=Cc2cc(F)ccc2F)cc1", "note": "[8-C12, 2-cyano-3-(2,5-difluorophenyl)-N-(4-acetamidophenyl)prop-2-enamide]", "viability at 48 h, 25 µM": 57.6}
{"smiles": "COc1ccc(NC(C)=O)cc1NC(=O)C(C)Cl", "note": "(centres unmarked) [4-M08, 2-chloro-N-(5-acetamido-2-methoxyphenyl)propanamide]", "viability at 48 h, 25 µM": 84.8}
{"smiles": "CC(Cl)C(=O)NC(C)c1ccc(Cl)cc1Cl", "note": "(centres unmarked) [5-M15, 2-chloro-N-[1-(2,4-dichlorophenyl)ethyl]propanamide]", "viability at 48 h, 25 µM": 69}
{"smiles": "N#CC(=Cc1cccc(Cl)c1Cl)C(N)=O", "note": "[8-J21, 2-cyano-3-(2,3-dichlorophenyl)prop-2-enamide]", "viability at 48 h, 25 µM": 121}
{"smiles": "CC(Cl)C(=O)N1C2CCC1CC1(C2)CC1(F)F", "note": "(centres unmarked) [6-N18, 2-chloro-1-{2',2'-difluoro-8-azaspiro[bicyclo[3.2.1]octane-3,1'-cyclopropan]-8-yl}propan-1-one]", "viability at 48 h, 25 µM": 112}
{"smiles": "C=CC(=O)N(C)CC(=O)NCc1nc2cc(C)ccc2n1C", "note": "[2-B14, N-({[(1,5-dimethyl-1H-1,3-benzodiazol-2-yl)methyl]carbamoyl}methyl)-N-methylprop-2-enamide]", "viability at 48 h, 25 µM": 37.9}
{"smiles": "Cc1ccc(N2CCCC2CNC(=O)CCl)cc1", "note": "(centres unmarked) [7-H14, 2-chloro-N-{[1-(4-methylphenyl)pyrrolidin-2-yl]methyl}acetamide]", "viability at 48 h, 25 µM": 4.76}
{"smiles": "COc1cc(C=C(C#N)C(=O)NC(C)C)sn1", "note": "[9-N12, 2-cyano-3-(3-methoxy-1,2-thiazol-5-yl)-N-(propan-2-yl)prop-2-enamide]", "viability at 48 h, 25 µM": 115}
{"smiles": "CCOC(=O)c1[nH]c(C)c(C(=O)CCl)c1C", "note": "[10-A10, ethyl 4-(2-chloroacetyl)-3,5-dimethyl-1H-pyrrole-2-carboxylate]", "viability at 48 h, 25 µM": 0.365}
{"smiles": "CN(Cc1ccccc1)S(=O)(=O)c1ccc(NC(=O)CCl)cc1", "note": "[5-K08, N-{4-[benzyl(methyl)sulfamoyl]phenyl}-2-chloroacetamide]", "viability at 48 h, 25 µM": 16.1}
{"smiles": "CC(Cl)C(=O)N1CCN(C(=O)CN2C(=O)CCC2=O)CC1", "note": "(centres unmarked) [6-B11, 1-{2-[4-(2-chloropropanoyl)piperazin-1-yl]-2-oxoethyl}pyrrolidine-2,5-dione]", "viability at 48 h, 25 µM": 106}
{"smiles": "CC(Cl)C(=O)N(C)C[C@@H]1C[C@H](F)CN1c1ccnc(N(C)C)n1", "note": "(stereo partly drawn) [7-K16, 2-chloro-N-{[(2S,4S)-1-[2-(dimethylamino)pyrimidin-4-yl]-4-fluoropyrrolidin-2-yl]methyl}-N-methylpropanamide]", "viability at 48 h, 25 µM": 79.5}
{"smiles": "CCn1cc(S(=O)(=O)N2CCSSCC2)cn1", "note": "[10-N19, 5-[(1-ethyl-1H-pyrazol-4-yl)sulfonyl]-1,2,5-dithiazepane]", "viability at 48 h, 25 µM": 109}
{"smiles": "C=CC(=O)Nc1ccc2c(c1)S(=O)(=O)CC2", "note": "[3-O15, N-(1,1-dioxo-2,3-dihydro-1lambda6-benzothiophen-6-yl)prop-2-enamide]", "viability at 48 h, 25 µM": 63.9}
{"smiles": "C=CC(=O)NC1(c2nccc(C(F)(F)F)n2)CC1", "note": "[2-D07, N-{1-[4-(trifluoromethyl)pyrimidin-2-yl]cyclopropyl}prop-2-enamide]", "viability at 48 h, 25 µM": 74.9}
{"smiles": "C=CC(=O)N(Cc1cnn(C2CCC2)c1)C1CCCc2occc21", "note": "(centres unmarked) [2-G07, N-[(1-cyclobutyl-1H-pyrazol-4-yl)methyl]-N-(4,5,6,7-tetrahydro-1-benzofuran-4-yl)prop-2-enamide]", "viability at 48 h, 25 µM": 103}
{"smiles": "CN(CCc1ccccc1O)C(=O)CCl", "note": "[7-P21, 2-chloro-N-[2-(2-hydroxyphenyl)ethyl]-N-methylacetamide]", "viability at 48 h, 25 µM": -0.172}
{"smiles": "C=CC(=O)NCc1cc(-c2ccco2)on1", "note": "[1-A21, N-{[5-(furan-2-yl)-1,2-oxazol-3-yl]methyl}prop-2-enamide]", "viability at 48 h, 25 µM": 166}
{"smiles": "O=C(CCl)Nc1cc(C2CCCC2)nn1-c1ccccc1", "note": "[4-J03, 2-chloro-N-(3-cyclopentyl-1-phenyl-1H-pyrazol-5-yl)acetamide]", "viability at 48 h, 25 µM": 0.358}
{"smiles": "COc1ccc(C=C(C#N)C(=O)Nc2ccc(C(=O)O)cc2)cc1C", "note": "[9-G14, 4-[2-cyano-3-(4-methoxy-3-methylphenyl)prop-2-enamido]benzoic acid]", "viability at 48 h, 25 µM": 108}
{"smiles": "CC(=O)c1cccc(NC(=O)C(C)Cl)c1", "note": "(centres unmarked) [6-K22, N-(3-acetylphenyl)-2-chloropropanamide]", "viability at 48 h, 25 µM": 105}
{"smiles": "C=CC(=O)N(CC)CC(=O)N1CC(C)(C)C1c1nccn1C", "note": "(centres unmarked) [2-J16, N-{2-[3,3-dimethyl-2-(1-methyl-1H-imidazol-2-yl)azetidin-1-yl]-2-oxoethyl}-N-ethylprop-2-enamide]", "viability at 48 h, 25 µM": 59.5}
{"smiles": "CC(Cl)C(=O)N1CC(OCc2cccc3ccccc23)C1", "note": "(centres unmarked) [7-I03, 2-chloro-1-{3-[(naphthalen-1-yl)methoxy]azetidin-1-yl}propan-1-one]", "viability at 48 h, 25 µM": 96.3}
{"smiles": "CCc1nc2cc(CNC(=O)C(C)Cl)ccc2n1C1CC1", "note": "(centres unmarked) [6-N09, 2-chloro-N-[(1-cyclopropyl-2-ethyl-1H-1,3-benzodiazol-5-yl)methyl]propanamide]", "viability at 48 h, 25 µM": 102}
{"smiles": "C=CC(=O)Nc1cnn(-c2ccncc2)c1C(F)F", "note": "[1-O09, N-[5-(difluoromethyl)-1-(pyridin-4-yl)-1H-pyrazol-4-yl]prop-2-enamide]", "viability at 48 h, 25 µM": 67.8}
{"smiles": "O=C1C=CC(=O)N1CCc1ccccc1", "note": "[10-E20, 1-(2-phenylethyl)-2,5-dihydro-1H-pyrrole-2,5-dione]", "viability at 48 h, 25 µM": 4.04}
{"smiles": "C=CC(=O)NC1CC2CCC(C1)S2", "note": "(centres unmarked) [1-B06, N-{8-thiabicyclo[3.2.1]octan-3-yl}prop-2-enamide]", "viability at 48 h, 25 µM": 84.7}
{"smiles": "Cc1cc(C(C)N(Cc2c(C)noc2C)C(=O)CCl)c(C)o1", "note": "(centres unmarked) [5-E16, 2-chloro-N-[(3,5-dimethyl-1,2-oxazol-4-yl)methyl]-N-[1-(2,5-dimethylfuran-3-yl)ethyl]acetamide]", "viability at 48 h, 25 µM": 1.18}
{"smiles": "CC(C)NC(=O)C(C#N)=Cc1ccc(OC(C)C)cc1", "note": "[8-G12, 2-cyano-N-(propan-2-yl)-3-[4-(propan-2-yloxy)phenyl]prop-2-enamide]", "viability at 48 h, 25 µM": 64.9}
{"smiles": "Cc1ccc(NC(=O)C(C#N)=Cc2cccc(Cl)c2Cl)cc1", "note": "[8-D06, 2-cyano-3-(2,3-dichlorophenyl)-N-(4-methylphenyl)prop-2-enamide]", "viability at 48 h, 25 µM": 69.5}
{"smiles": "C=CC(=O)NCc1cccc(OC)n1", "note": "[1-H22, N-[(6-methoxypyridin-2-yl)methyl]prop-2-enamide]", "viability at 48 h, 25 µM": 79.2}
{"smiles": "O=C(CCl)Cc1ccc(F)cc1F", "note": "[10-G17, 1-chloro-3-(2,4-difluorophenyl)propan-2-one]", "viability at 48 h, 25 µM": 36.8}
{"smiles": "C=CC(=O)NCc1ccccc1S(=O)(=O)N1CCOCC1", "note": "[3-H22, N-{[2-(morpholine-4-sulfonyl)phenyl]methyl}prop-2-enamide]", "viability at 48 h, 25 µM": 89.1}
{"smiles": "CC(Cl)C(=O)Nc1ccccc1F", "note": "(centres unmarked) [5-L10, 2-chloro-N-(2-fluorophenyl)propanamide]", "viability at 48 h, 25 µM": 99.2}
{"smiles": "CCOC(=O)c1c(NC(=O)C(C)Cl)sc2c1CCC(C)C2", "note": "(centres unmarked) [5-D04, ethyl 2-(2-chloropropanamido)-6-methyl-4,5,6,7-tetrahydro-1-benzothiophene-3-carboxylate]", "viability at 48 h, 25 µM": 90.9}
{"smiles": "C=CC(=O)N(C)CC(=O)N1CCCC1c1nc(C)no1", "note": "(centres unmarked) [2-M04, N-methyl-N-{2-[2-(3-methyl-1,2,4-oxadiazol-5-yl)pyrrolidin-1-yl]-2-oxoethyl}prop-2-enamide]", "viability at 48 h, 25 µM": 78.5}
{"smiles": "C=CC(=O)NCCc1cscn1", "note": "[2-G08, N-[2-(1,3-thiazol-4-yl)ethyl]prop-2-enamide]", "viability at 48 h, 25 µM": 87.1}
{"smiles": "Cc1ccc(NC(=O)C(C#N)=Cc2ccc3c(c2)OCCO3)c(C)c1", "note": "[9-H03, 2-cyano-3-(2,3-dihydro-1,4-benzodioxin-6-yl)-N-(2,4-dimethylphenyl)prop-2-enamide]", "viability at 48 h, 25 µM": 107}
{"smiles": "C=CC(=O)Nc1ccc(N2CCCCC2)c(F)c1", "note": "[2-I22, N-[3-fluoro-4-(piperidin-1-yl)phenyl]prop-2-enamide]", "viability at 48 h, 25 µM": 92.5}
{"smiles": "CC(Cl)C(=O)NCCN1C(=O)CSC1=O", "note": "(centres unmarked) [5-M03, 2-chloro-N-[2-(2,4-dioxo-1,3-thiazolidin-3-yl)ethyl]propanamide]", "viability at 48 h, 25 µM": 87.2}
{"smiles": "C=CC(=O)NCC(C)(C)c1coc(-c2ccccc2)n1", "note": "[3-A03, N-[2-methyl-2-(2-phenyl-1,3-oxazol-4-yl)propyl]prop-2-enamide]", "viability at 48 h, 25 µM": 45.6}
{"smiles": "CCNC(=O)C(C#N)=Cc1c(N2CCOCC2)nc2ccccn2c1=O", "note": "[9-O06, 2-cyano-N-ethyl-3-[2-(morpholin-4-yl)-4-oxo-4H-pyrido[1,2-a]pyrimidin-3-yl]prop-2-enamide]", "viability at 48 h, 25 µM": 137}
{"smiles": "O=C(CCl)NCC1CCN(C(=O)Cc2ccccc2)C1", "note": "(centres unmarked) [7-B08, 2-chloro-N-{[1-(2-phenylacetyl)pyrrolidin-3-yl]methyl}acetamide]", "viability at 48 h, 25 µM": 0.975}
{"smiles": "O=C(CCl)NCc1ccccc1CN1CCOCC1", "note": "[5-L06, 2-chloro-N-({2-[(morpholin-4-yl)methyl]phenyl}methyl)acetamide hydrochloride]", "viability at 48 h, 25 µM": 1.46}
{"smiles": "C=CC(=O)N(C)CC(=O)N1CCC(CN2CCCCC2=O)CC1", "note": "[2-F16, N-methyl-N-(2-oxo-2-{4-[(2-oxopiperidin-1-yl)methyl]piperidin-1-yl}ethyl)prop-2-enamide]", "viability at 48 h, 25 µM": 57}
{"smiles": "O=C(CCl)NCc1ccc(C(=O)N2CCOCC2)cc1", "note": "[5-L14, 2-chloro-N-{[4-(morpholine-4-carbonyl)phenyl]methyl}acetamide]", "viability at 48 h, 25 µM": 67.7}
{"smiles": "C=CC(=O)NC1CCCCC12CCCC2", "note": "(centres unmarked) [1-F16, N-{spiro[4.5]decan-6-yl}prop-2-enamide]", "viability at 48 h, 25 µM": 77.6}
{"smiles": "CC1(C)CN(C(=O)CCl)CCO1", "note": "[6-C05, 2-chloro-1-(2,2-dimethylmorpholin-4-yl)ethan-1-one]", "viability at 48 h, 25 µM": 2.63}
{"smiles": "COc1ccccc1N=Nc1ccc(NC(=O)CCl)cc1C", "note": "[6-J06, 2-chloro-N-{4-[2-(2-methoxyphenyl)diazen-1-yl]-3-methylphenyl}acetamide]", "viability at 48 h, 25 µM": 0.765}
{"smiles": "COc1ccc(Cl)cc1NC(=O)C(C)Cl", "note": "(centres unmarked) [6-G16, 2-chloro-N-(5-chloro-2-methoxyphenyl)propanamide]", "viability at 48 h, 25 µM": 112}
{"smiles": "O=C(CCl)NC1CCN(Cc2ccccc2)C1", "note": "(centres unmarked) [6-G18, N-(1-benzylpyrrolidin-3-yl)-2-chloroacetamide hydrochloride]", "viability at 48 h, 25 µM": 3.85}
